Tests used:
[1] = target: T1, A2-S481T/C482T (mutant ASCT2) (Homo sapiens, UniProt Q15758, C467T/S466T); assay: Two electrode voltage clamp, substrate-activated anion current in oocytes expressing A2-S481T/C482T; format: cell-based
T1 construct: expressed in transfected cells; host or cells: Xenopus laevis oocytes (cRNA injection)
T1 sequence (Q15758 1-541 S466T/C467T): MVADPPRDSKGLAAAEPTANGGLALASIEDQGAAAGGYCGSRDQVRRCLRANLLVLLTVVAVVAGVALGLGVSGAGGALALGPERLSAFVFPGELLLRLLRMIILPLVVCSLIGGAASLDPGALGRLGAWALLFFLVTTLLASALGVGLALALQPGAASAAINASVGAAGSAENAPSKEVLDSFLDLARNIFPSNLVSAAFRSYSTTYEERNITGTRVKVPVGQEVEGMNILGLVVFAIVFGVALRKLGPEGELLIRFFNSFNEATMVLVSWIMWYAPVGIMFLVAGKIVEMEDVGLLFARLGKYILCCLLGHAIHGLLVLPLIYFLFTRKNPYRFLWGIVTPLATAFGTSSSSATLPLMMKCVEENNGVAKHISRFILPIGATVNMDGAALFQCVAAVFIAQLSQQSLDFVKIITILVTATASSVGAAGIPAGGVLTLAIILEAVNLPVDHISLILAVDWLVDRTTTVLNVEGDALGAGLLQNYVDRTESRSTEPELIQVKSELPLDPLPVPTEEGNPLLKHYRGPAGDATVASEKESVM
Experimental: (§1) All chemicals were obtained from Sigma unless otherwise stated. Stage V oocytes were harvested from female Xenopus laevis (frogs) which were obtained from Nasco (Fort Alkinson, USA). Frogs were anaesthetised with 6.5 mM tricaine neutralised with 7.14 mM sodium bicarbonate. After making an incision in the abdomen of the frog, ovarian sacs were removed and stored in OR-2 buffer (82.5 mM NaCl, 2 mM KCl, 1 mM MgCl2, 5 mM hemisodium HEPES, pH 7.5). This surgical procedure follows a protocol (#2016/970) approved by the University of Sydney Animal Ethics Committee under the Australian Code of Practice for the Care and Use of Animals for Scientific Purposes. To isolate oocytes, the ovarian sacs were cut into small sections before being digested by agitation with 2 mg per ml Collagenase A for 1–2 h. Following digestion, defoliculated oocytes were initially rinsed with OR-2, followed by frog Ringer’s solution (96 mM NaCl, 2 mM KCl, 1 mM MgCl2, 1.8 mM CaCl2, 5 mM hemisodium HEPES, pH 7.5). A total of 20 ng of transporter cRNA was injected into oocytes which were stored in frog Ringer’s solution supplemented with 0.1% gentamycin, 50 μg per ml tetracycline, 2.5 mM pyruvate and 0.5 mM theophylline at 16–18 °C.
After 2–4 days of microinjection, current recordings were made using the two electrode voltage clamp technique with a Geneclamp 500 amplifier (Axon Instruments, Foster City, CA) interfaced with a MacLab 2e chart recorder (ADI Instruments, Sydney, Australia) using the chart software, and a Digidata 1322A (Axon Instruments) controlled by an IBM-compatible computer using the pClamp software (version 10, Molecular Devices, Union City, CA). The current–voltage relationships for substrate elicited conductances were obtained by subjecting cells to 200 ms voltage pulses between −100 mV and + 60 mV in 10 mV steps. Current–voltage relationships were calculated by subtracting steady state current measurements in the absence of substrate from corresponding current measurements in the presence of substrate. […]

[2] = target: T2, A1-T458S/T459C (mutant ASCT1) (Homo sapiens, UniProt P43007, T458S/T459C); assay: Two electrode voltage clamp, substrate-activated anion current in oocytes expressing A1-T458S/T459C; format: cell-based; conditions: for EC50: A1-T458S/T459C in oocytes, NO3−-containing buffer, current at +60 mV
T2 construct: expressed in transfected cells; host or cells: Xenopus laevis oocytes (cRNA injection)
T2 sequence (P43007 1-532 T458S/T459C): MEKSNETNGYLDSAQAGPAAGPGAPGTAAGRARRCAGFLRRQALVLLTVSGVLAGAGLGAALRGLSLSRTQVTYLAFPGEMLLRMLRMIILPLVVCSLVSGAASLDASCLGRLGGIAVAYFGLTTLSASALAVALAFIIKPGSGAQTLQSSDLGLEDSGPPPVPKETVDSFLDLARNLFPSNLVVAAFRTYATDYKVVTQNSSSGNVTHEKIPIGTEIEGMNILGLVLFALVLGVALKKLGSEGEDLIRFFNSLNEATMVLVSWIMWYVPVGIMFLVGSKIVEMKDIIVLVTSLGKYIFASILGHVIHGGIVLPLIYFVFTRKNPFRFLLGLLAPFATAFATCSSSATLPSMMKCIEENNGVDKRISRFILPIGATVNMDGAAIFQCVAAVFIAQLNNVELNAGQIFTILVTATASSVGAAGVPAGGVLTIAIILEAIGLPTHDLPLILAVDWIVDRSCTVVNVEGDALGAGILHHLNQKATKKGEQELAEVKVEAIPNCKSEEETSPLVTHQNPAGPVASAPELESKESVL
Experimental: as §1
After 2–4 days of microinjection, current recordings were made using the two electrode voltage clamp technique with a Geneclamp 500 amplifier (Axon Instruments, Foster City, CA) interfaced with a MacLab 2e chart recorder (ADI Instruments, Sydney, Australia) using the chart software, and a Digidata 1322A (Axon Instruments) controlled by an IBM-compatible computer using the pClamp software (version 10, Molecular Devices, Union City, CA). The current–voltage relationships for substrate elicited conductances were obtained by subjecting cells to 200 ms voltage pulses between −100 mV and + 60 mV in 10 mV steps. Current–voltage relationships were calculated by subtracting steady state current measurements in the absence of substrate from corresponding current measurements in the presence of substrate.
Recording solution for all experiments (except where otherwise stated) was normal frog Ringer’s solution (Cl^−-containing buffer) with complete NO3 ^− substitution for Cl^−. For Na^+ titrations, NMDG^+ was used as the substitute cation. The pH of recording solutions was adjusted using HNO3 and NaOH or KOH. Recordings were made with the bath grounded via a 3 M KCl/agar bridge connected to a 3 M KCl reservoir to minimise offset potentials. Cells were washed with Cl^−-containing buffer between substrate applications to ensure that NO3 loading of the cell was not significant. […]

[3] = A2-S481T/C482T in oocytes, NO3−-containing buffer, current at +60 mV, dash = substrate did not generate currents

SMILES	GPNA % inhibition of L-serine activated current ([1]; A2-S481T/C482T, GPNA co-applied with EC50 of L-serine, 1 mM GPNA (Table 1 footnote)) [%]	GPNA % inhibition of L-serine activated current ([2]; A1-T458S/T459C, GPNA co-applied with EC50 of L-serine, 300 µM GPNA / 1 mM GPNA (Table 1 footnote)) [%]	IC50 ([2]; A1-T458S/T459C, co-applied with EC50 of L-serine, read-out: IC50 for inhibition of L-serine activated current) [µM]	EC50 of substrate-activated current [1, 3]	EC50 [2] [µM]	EC50 [1, 3] [µM]
N[C@@H](CCC(=O)Nc1ccc([N+](=O)[O-])cc1)C(=O)O [GPNA, glutamyl-p-nitroanilide]	20 ± 3	41 ± 4	600 ± 200	–	–	–
NC(=O)CC[C@H](N)C(=O)O [L-glutamine]	–	–	–	did not generate any currents	90 ± 10	–
N[C@@H](CO)C(=O)O [L-serine]	–	–	–	–	45 ± 5	61 ± 7

From publication PMC5750217 (Nature Communications, 2018)
